Assay [1] addresses T1, human D2R/β-arrestin (Homo sapiens (Human), UniProt P14416). Put plainly: cell-based. The settings on record: cAMP Antagonist, CHO-K1 cells expressing human D2R/β-arrestin; antagonist mode, 2.5 μM forskolin and 2.7 nM quinpirole.
The target of assay [2] is T1, human D2R/β-arrestin. Put plainly: Gi/cAMP agonist assay (Lance Ultra cAMP, forskolin). The class given is cell-based. The settings on record: CHO-K1 cells expressing human D2R/β-arrestin; agonist mode, 2.5 μM forskolin. The method, then:
Eu-cAMP tracer solution (10 μl, PerkinElmer, 360 μl of Tracer in 17.64 ml kit buffer) and ULight-anti-cAMP solution (10 μl, 120 μL antibody in 17.88 ml kit buffer) was then added to each well.

Assay [3] concerns the target T1, human D2R/β-arrestin. Put plainly: cell-based. Particulars: β-arrestin Antagonist, CHO-K1 cells expressing human D2R/β-arrestin; antagonist mode, quinpirole 130 nM.
Assay [4] addresses T1, human D2R/β-arrestin. As to the kind of experiment: β-arrestin agonist assay (PathHunter). It is filed as cell-based. The settings on record: CHO-K1 cells expressing human D2R/β-arrestin; agonist mode. The procedure:
The detection reagent (9.6 μL, Buffer:Emerald II:Galactor-Star in a 19:5:1 ratio, i.e., 14.06 mL:3.7 mL:0.74 mL=18.5 mL) was then added to the agonist plates.

A value given as a limit tells only on which side of the number the result lay.

T1 sequence (P14416 whole entry): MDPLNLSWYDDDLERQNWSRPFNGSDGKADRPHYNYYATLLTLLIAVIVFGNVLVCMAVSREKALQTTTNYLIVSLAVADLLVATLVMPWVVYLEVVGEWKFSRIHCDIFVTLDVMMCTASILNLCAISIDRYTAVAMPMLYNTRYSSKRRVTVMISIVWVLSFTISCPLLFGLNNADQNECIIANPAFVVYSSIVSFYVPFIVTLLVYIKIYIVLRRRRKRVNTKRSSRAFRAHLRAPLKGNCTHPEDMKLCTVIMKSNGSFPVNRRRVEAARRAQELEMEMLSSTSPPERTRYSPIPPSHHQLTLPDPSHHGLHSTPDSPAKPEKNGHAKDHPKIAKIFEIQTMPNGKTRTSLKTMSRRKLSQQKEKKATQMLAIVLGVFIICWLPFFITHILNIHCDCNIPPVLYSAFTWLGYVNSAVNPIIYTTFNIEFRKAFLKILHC

By IC50 is commonly meant the concentration that inhibits the measured activity by half. High values mean a need for much substance, low ones inhibition by little substance. Broadly, the EC50 is the concentration at which the effect is half-maximal. Lower therefore signals an effect from little substance. As to `CC1(Oc2ccccc2)CCN(CCn2cccc(C(F)(F)F)c2=O)CC1` [Example 77, 1-(2-(4-methyl-4-phenoxypiperidin-1-yl)ethyl)-3-(trifluoromethyl)pyridin-2(1H)-one], the IC50 against human D2R/β-arrestin [1] and at human D2R/β-arrestin [3] was over 30 µM throughout. The EC50 on human D2R/β-arrestin [2] was 10 to 30 µM; at human D2R/β-arrestin [4] it was over 30 µM.
In the case of `CC1(Oc2ccccc2)CCN(C(C)(C)COc2ccccc2C(F)(F)F)CC1` [Example 80, 4-methyl-1-(2-methyl-1-(2-(trifluoromethyl)phenoxy)propan-2-yl)-4-phenoxypiperidine], the IC50 on human D2R/β-arrestin [1] and at human D2R/β-arrestin [3] was 1 to 10 µM in each case. For the same compound, the EC50 on human D2R/β-arrestin [2] was 10 to 30 µM; on human D2R/β-arrestin [4] it was over 30 µM.
For `CC(CO)N1CCC(C)(Oc2ccccc2)CC1` (stereo not shown) [Example 81, 2-(4-Methyl-4-phenoxypiperidin-1-yl)propan-1-ol], the IC50 was over 30 µM at human D2R/β-arrestin [1] and 10 to 30 µM on human D2R/β-arrestin [3]. Moreover, the EC50 is 1 to 10 µM at human D2R/β-arrestin [2] and over 30 µM at human D2R/β-arrestin [4].
Consider `CC1CC(C)(Oc2ccccc2)CC(C)N1CCOc1ccccc1C(F)(F)F` (stereo not shown) [Example 83, 2,4,6-Trimethyl-4-phenoxy-1-(2-(2-(trifluoromethyl)phenoxy)ethyl) piperidine], for which the IC50 against human D2R/β-arrestin [1] was in the range of 0.1 to 1 µM; on human D2R/β-arrestin [3], 1 to 10 µM. The EC50 on human D2R/β-arrestin [2] and at human D2R/β-arrestin [4] was over 30 µM each time.
Consider `COc1ccccc1OC1(C)CCN(CCOc2ccccc2)C1` (stereo not shown) [Example 84, 3-(2-Methoxyphenoxy)-3-methyl-1-(2-phenoxyethyl)pyrrolidine], for which the IC50 against human D2R/β-arrestin [1] is over 30 µM; against human D2R/β-arrestin [3] it was 1 to 10 µM. For the same compound, the EC50 was 1 to 10 µM on human D2R/β-arrestin [2] and over 30 µM on human D2R/β-arrestin [4].
On to `Cc1ccccc1OC1(C)CCN(CCOc2ccccc2)C1` (stereo not shown) [Example 85, 3-Methyl-1-(2-phenoxyethyl)-3-(o-tolyloxy)pyrrolidine], for which the IC50 against human D2R/β-arrestin [1] was over 30 µM; against human D2R/β-arrestin [3], 1 to 10 µM. Also, the EC50 on human D2R/β-arrestin [2] was under 0.1 µM; at human D2R/β-arrestin [4], over 30 µM.
`CC1(Oc2ccccc2)CCN(CCOc2ccccc2F)CC1` [Example 87, 1-(2-(2-fluorophenoxy)ethyl)-4-methyl-4-phenoxypiperidine]: the IC50 against human D2R/β-arrestin [1] and on human D2R/β-arrestin [3] was over 30 µM in each case. Besides, the EC50 at human D2R/β-arrestin [2] and on human D2R/β-arrestin [4] was under 0.1 µM in each case.
`CC1(Oc2ccc(Cl)cc2)CCN(CCOc2ccccc2Cl)CC1` [Example 88, 4-(4-chlorophenoxy)-1-(2-(2-chlorophenoxy)ethyl)-4-methylpiperidine]: the figures for the IC50 on human D2R/β-arrestin [1] and at human D2R/β-arrestin [3] were over 30 µM and under 0.1 µM, respectively. Also, the EC50 on human D2R/β-arrestin [2] and at human D2R/β-arrestin [4] was under 0.1 µM throughout.
On to `CC1(Oc2ccccc2)CCN(CCOc2ccccc2Cl)CC1` [Example 89, 1-(2-(2-Chlorophenoxy)ethyl)-4-methyl-4-phenoxypiperidine], for which the IC50 is over 30 µM against human D2R/β-arrestin [1] and under 0.1 µM against human D2R/β-arrestin [3]. Further, the half-maximal effective concentration (EC50) at human D2R/β-arrestin [2] and on human D2R/β-arrestin [4] was under 0.1 µM each time.
With `CC1(Oc2ccc(Cl)cc2)CCN(CCOc2ccc3ncoc3c2)C1` (stereo not shown) [Example 92, 6-(2-(3-(4-Chlorophenoxy)-3-methylpyrrolidin-1-yl)ethoxy)benzo[d]oxazole], the IC50 lay within 0.1 to 1 µM against human D2R/β-arrestin [1] and 1 to 10 µM against human D2R/β-arrestin [3]. In addition, the EC50 was under 0.1 µM on human D2R/β-arrestin [2] and over 30 µM at human D2R/β-arrestin [4].
For the compound `OC1(c2ccccc2)CCN(CCOc2ccccc2)C1` (stereo not shown) [Example 93, 1-(2-Phenoxyethyl)-3-phenylpyrrolidin-3-ol], the results for the IC50 on human D2R/β-arrestin [1] and at human D2R/β-arrestin [3] were 0.1 to 1 µM and 1 to 10 µM, respectively. The EC50 at human D2R/β-arrestin [2] is 0.1 to 1 µM; on human D2R/β-arrestin [4] it was over 30 µM.
Consider `O=[N+]([O-])c1ccc(OC2(c3ccccc3)CCN(CCOc3ccccc3)C2)cc1` (stereo not shown) [Example 94, 3-(4-nitrophenoxy)-1-(2-phenoxyethyl)-3-phenylpyrrolidine], for which the IC50 on human D2R/β-arrestin [1] and at human D2R/β-arrestin [3] was 1 to 10 µM each time. Besides, the 50% effective concentration (EC50) at human D2R/β-arrestin [2] is 0.1 to 1 µM; on human D2R/β-arrestin [4], over 30 µM.
Turning to `CC1(Oc2ccc(Cl)cc2)CCCN(CCOc2ccccc2Cl)C1` (stereo not shown) [Example 97, 3-(4-chlorophenoxy)-1-(2-(2-chlorophenoxy)ethyl)-3-methylpiperidine], the half-inhibitory concentration (IC50) against human D2R/β-arrestin [1] was under 0.1 µM; on human D2R/β-arrestin [3] it was 0.1 to 1 µM. Besides, the half-maximal effective concentration (EC50) at human D2R/β-arrestin [2] and on human D2R/β-arrestin [4] was over 30 µM each time.
Take `CC1(Oc2ccc(Cl)cc2)CCCN(CCOc2ccccc2F)C1` (stereo not shown) [Example 98, 3-(4-Chlorophenoxy)-1-(2-(2-fluorophenoxy)ethyl)-3-methylpiperidine]: the IC50 on human D2R/β-arrestin [1] is under 0.1 µM; against human D2R/β-arrestin [3], 0.1 to 1 µM. Moreover, the EC50 on human D2R/β-arrestin [2] and at human D2R/β-arrestin [4] was over 30 µM each time.
For the compound `CC1(Oc2cccc(C(F)(F)F)c2)CCCN(CCOc2ccccc2)C1` (stereo not shown) [Example 100, 3-methyl-1-(2-phenoxyethyl)-3-(3-(trifluoromethyl)phenoxy)piperidine], the IC50 on human D2R/β-arrestin [1] is 0.1 to 1 µM; at human D2R/β-arrestin [3] it was 1 to 10 µM. Further, the EC50 on human D2R/β-arrestin [2] and at human D2R/β-arrestin [4] was over 30 µM each time.
For `FC(F)(F)c1ccccc1OCCN1CCC(=Cc2ccccc2)CC1` [Example 101, 4-benzylidene-1-(2-(2-(trifluoromethyl)phenoxy)ethyl)piperidine], the IC50 against human D2R/β-arrestin [1] and on human D2R/β-arrestin [3] was 1 to 10 µM throughout. The EC50 at human D2R/β-arrestin [2] and at human D2R/β-arrestin [4] was over 30 µM throughout.
For `FC(F)(F)c1ccccc1OCCN1CCC2(CC1)CC2c1ccccc1` (stereo not shown) [Example 102, 1-Phenyl-6-(2-(2-(trifluoromethyl)phenoxy)ethyl)-6-azaspiro[2.5]octane], the 50% inhibitory concentration (IC50) against human D2R/β-arrestin [1] and on human D2R/β-arrestin [3] was 1 to 10 µM throughout. The EC50 at human D2R/β-arrestin [2] was 0.1 to 1 µM; on human D2R/β-arrestin [4], over 30 µM.
`OC(c1ccccc1)C1(O)CCN(CCOc2ccccc2C(F)(F)F)CC1` (stereo not shown) [Example 103, 4-(Hydroxy(phenyl)methyl)-1-(2-(2-(trifluoromethyl)phenoxy)ethyl) piperidin-4-ol]: the concentration for half-maximal inhibition (IC50) against human D2R/β-arrestin [1] and at human D2R/β-arrestin [3] was 0.1 to 1 µM each time. The EC50 on human D2R/β-arrestin [2] and at human D2R/β-arrestin [4] was over 30 µM throughout.
Take `CC1(Oc2ccccc2Cl)CCN(CCOc2ccccc2C(F)(F)F)CC1` [Example 104, 4-(2-Chlorophenoxy)-4-methyl-1-(2-(2-(trifluoromethyl)phenoxy)ethyl) piperidine]: the IC50 against human D2R/β-arrestin [1] was in the range of 1 to 10 µM; on human D2R/β-arrestin [3] it was 0.1 to 1 µM. Also, the figures for the EC50 at human D2R/β-arrestin [2] and on human D2R/β-arrestin [4] were 10 to 30 µM and over 30 µM, respectively.
For `CC1(Oc2ccccn2)CCN(CCOc2ccccc2C(F)(F)F)CC1` [Example 105, 2-((4-methyl-1-(2-(2-(trifluoromethyl)phenoxy)ethyl)piperidin-4-yl)oxy) pyridine], in that order: under 0.1 µM, 0.1 to 1 µM, under 0.1 µM and over 30 µM.
In the same order, the values of `CC1(C(O)c2ccccc2)CCN(CCOc2ccccc2C(F)(F)F)CC1` (stereo not shown) [Example 107, (4-methyl-1-(2-(2-(trifluoromethyl)phenoxy)ethyl)piperidin-4-yl)(phenyl)methanol] are 0.1 to 1 µM, 0.1 to 1 µM, under 0.1 µM and 10 to 30 µM.
For `CC1(Oc2ccc(Cl)cc2)CCCN(C(C)(C)COc2ccccc2)C1` (stereo not shown) [Example 108, 3-(4-Chlorophenoxy)-3-methyl-1-(2-methyl-1-phenoxypropan-2-yl)piperidine], in that order: 1 to 10 µM, 10 to 30 µM, over 30 µM and over 30 µM.

Source of the values: patent publication US11498896B2 (The Broad Institute, Inc., priority 2014, dated 2022).
